Measured values taken from patent US9164102B2, “Methods of screening for TRPM4b modulators” (The Queen's Medical Center, priority 2002, dated 2015).

Target: T1, TRPM4b (Homo sapiens, UniProt Q8TD43)
T1 construct: expressed in transfected cells
Experiment: Patch-clamp recordings of TRPM4b currents in HEK-293 cells at buffered intracellular Ca2+
Assay type: cell-based
Conditions: cytosolic/intracellular Ca2+
Description: Wild type and tetracycline-inducible […] Flag-TRPM4b-expressing cells were cultured at 37° C./5% CO2 in DMEM supplemented with 10% FBS and 2 mM glutamine. The medium was supplemented with blasticidin (5 μg/ml; Invitrogen) and zeocin (0.4 mg/ml; Invitrogen). Cells were resuspended in media containing 1 μg/ml tetracycline (Invitrogen) 24 hours before experiments. For patch-clamp experiments, cells were kept in a standard Ringer's solution (in mM): NaCl 145, KCl 2.8, CaCl2 1, MgCl2 2, glucose 10, Hepes.NaOH 10, pH 7.2. In some experiments, this solution was modified such that all but 1 mM of NaCl was replaced by choline-Cl (choline-based solution). In experiments where ATP was used, it was added at 1 mM of the Mg^2+ salt and extracellular Ca^2+ concentration was raised to 2 mM. The standard pipette-filling solutions contained (in mM): K-glutamate 145, NaCl 8, MgCl2 1, Cs-BAPTA 10, pH 7.2 adjusted with KOH. In some experiments, [Ca^2+]i was buffered to […] by 10 mM BAPTA and appropriate concentrations of CaCl2 or left unbuffered. For inside-out single-channel recordings, the patch was excised into a similar solution, except that KCl was used instead of K-glutamate. All reagents were purchased from Sigma and dissolved in the standard intracellular solution. […] Capacitive currents and series resistance were determined and corrected before each voltage ramp. […]

T1 sequence (Q8TD43 whole entry): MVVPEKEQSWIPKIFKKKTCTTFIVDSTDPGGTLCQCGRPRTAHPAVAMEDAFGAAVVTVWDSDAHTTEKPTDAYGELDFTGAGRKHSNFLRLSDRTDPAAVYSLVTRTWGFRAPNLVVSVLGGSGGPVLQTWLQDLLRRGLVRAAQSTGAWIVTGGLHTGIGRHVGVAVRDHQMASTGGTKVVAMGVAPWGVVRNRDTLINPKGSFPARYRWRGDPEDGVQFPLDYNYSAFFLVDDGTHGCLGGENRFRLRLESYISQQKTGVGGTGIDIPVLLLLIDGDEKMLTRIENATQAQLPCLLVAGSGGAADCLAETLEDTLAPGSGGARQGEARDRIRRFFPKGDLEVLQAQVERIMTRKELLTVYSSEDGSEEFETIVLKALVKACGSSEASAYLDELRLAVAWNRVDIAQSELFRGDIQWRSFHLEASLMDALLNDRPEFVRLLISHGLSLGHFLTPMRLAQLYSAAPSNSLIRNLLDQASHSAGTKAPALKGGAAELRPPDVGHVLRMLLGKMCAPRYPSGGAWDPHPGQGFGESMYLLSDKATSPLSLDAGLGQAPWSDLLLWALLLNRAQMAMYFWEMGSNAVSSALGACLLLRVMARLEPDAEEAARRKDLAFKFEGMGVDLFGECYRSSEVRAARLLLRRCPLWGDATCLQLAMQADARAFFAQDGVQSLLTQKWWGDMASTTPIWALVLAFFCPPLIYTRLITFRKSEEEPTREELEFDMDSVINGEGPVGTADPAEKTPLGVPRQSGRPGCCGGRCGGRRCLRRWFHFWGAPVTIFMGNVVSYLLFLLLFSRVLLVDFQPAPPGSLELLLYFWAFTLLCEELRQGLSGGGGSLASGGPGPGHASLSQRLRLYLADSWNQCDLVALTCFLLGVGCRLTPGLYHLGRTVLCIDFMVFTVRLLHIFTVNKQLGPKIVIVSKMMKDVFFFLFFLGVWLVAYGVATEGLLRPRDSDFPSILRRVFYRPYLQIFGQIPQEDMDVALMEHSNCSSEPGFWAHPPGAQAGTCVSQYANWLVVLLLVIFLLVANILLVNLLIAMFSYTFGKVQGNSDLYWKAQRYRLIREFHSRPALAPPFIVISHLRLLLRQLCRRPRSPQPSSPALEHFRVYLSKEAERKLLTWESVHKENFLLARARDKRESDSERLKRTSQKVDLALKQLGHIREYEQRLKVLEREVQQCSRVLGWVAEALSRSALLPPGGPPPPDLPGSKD

Compound: [Ca+2] [Ca^2+]
- Ca^2+ concentration at which direct gating of the TRPM4b channel appears to begin: ~300 nM
